Laboratory results from publication PMC5187899, “Discovery of Anti-Hypertensive Oligopeptides from Adlay Based on In Silico Proteolysis and Virtual Screening” (International Journal of Molecular Sciences, 2016).
No end group written: not given here.

Biological target: T1, ACE from rabbit lungs (Oryctolagus cuniculus, UniProt P12822)
T1 construct: ACE from rabbit lungs and HHL was supplied by Sigma-Aldrich; purchased Sigma-Aldrich (St. Louis, MO, USA); host or cells: rabbit lung tissue
T1 sequence (P12822 34-1310): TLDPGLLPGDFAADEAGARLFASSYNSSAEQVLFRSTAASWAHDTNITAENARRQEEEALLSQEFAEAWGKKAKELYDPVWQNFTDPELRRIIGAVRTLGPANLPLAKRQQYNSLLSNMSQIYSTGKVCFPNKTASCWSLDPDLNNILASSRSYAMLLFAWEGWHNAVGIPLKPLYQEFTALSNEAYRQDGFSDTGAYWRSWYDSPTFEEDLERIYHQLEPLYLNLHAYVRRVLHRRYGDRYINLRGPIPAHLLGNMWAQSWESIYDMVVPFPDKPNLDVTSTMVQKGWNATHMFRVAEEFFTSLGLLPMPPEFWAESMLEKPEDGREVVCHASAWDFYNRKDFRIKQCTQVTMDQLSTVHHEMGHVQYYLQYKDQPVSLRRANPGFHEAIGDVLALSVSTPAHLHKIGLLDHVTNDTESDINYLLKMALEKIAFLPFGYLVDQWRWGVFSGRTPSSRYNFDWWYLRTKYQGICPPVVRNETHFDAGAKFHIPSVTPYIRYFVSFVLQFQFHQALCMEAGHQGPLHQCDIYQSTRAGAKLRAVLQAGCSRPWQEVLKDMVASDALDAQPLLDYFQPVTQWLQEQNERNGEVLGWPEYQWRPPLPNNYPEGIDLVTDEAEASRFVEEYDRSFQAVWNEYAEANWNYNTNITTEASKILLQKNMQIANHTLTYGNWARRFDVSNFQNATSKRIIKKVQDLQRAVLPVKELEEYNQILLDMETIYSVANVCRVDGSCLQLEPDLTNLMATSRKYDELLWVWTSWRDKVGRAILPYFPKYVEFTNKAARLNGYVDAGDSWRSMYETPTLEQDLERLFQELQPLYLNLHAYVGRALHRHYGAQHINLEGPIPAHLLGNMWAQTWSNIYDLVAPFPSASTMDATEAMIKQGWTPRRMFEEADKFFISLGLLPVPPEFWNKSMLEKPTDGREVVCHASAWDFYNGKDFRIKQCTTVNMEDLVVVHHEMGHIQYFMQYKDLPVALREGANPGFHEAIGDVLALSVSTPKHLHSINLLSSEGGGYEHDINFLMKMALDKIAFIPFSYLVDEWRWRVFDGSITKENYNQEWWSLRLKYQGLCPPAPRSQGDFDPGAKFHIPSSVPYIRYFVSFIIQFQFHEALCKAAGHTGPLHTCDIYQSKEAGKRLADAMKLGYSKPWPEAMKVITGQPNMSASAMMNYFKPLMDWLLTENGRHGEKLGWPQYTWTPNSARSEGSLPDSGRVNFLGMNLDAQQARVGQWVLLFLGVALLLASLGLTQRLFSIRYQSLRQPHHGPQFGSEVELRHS
Test: ACE inhibitory activity assay by RP-HPLC (HHL substrate, hippuric acid detection)
Type: biochemical
Conditions: for ACE inhibitory activity (in words): chromatograms at 0.048 mg/mL
From the text: The potential oligopeptides obtained by docking were chemically synthesized by the Beijing Scilight Biotechnology Ltd., Co. (Beijing, China). The purity levels of the synthesized oligopeptides were all greater than 98% by HPLC analysis. ACE from rabbit lungs and HHL was supplied by Sigma-Aldrich (St. Louis, MO, USA). Acetonitrile of HPLC grade was purchased from Fisher Scientific (Pittsburgh, PA, USA). Lisinopril was supplied by Beijing HWRK Chem Co., Ltd. (Beijing, China) with more than 98% purity. All other used chemicals were of analytical grade.
The assay of in vitro ACE inhibitory activity was performed by RP-HPLC method by Yuan. Initially, the mixture was incubated at 37 °C for 10 min, including 10 μL of samples and 20 μL ACE (2 mU). After adding 20 μL of 2 mM HHL, the mixture continued to be incubated for 60 min until acetonitrile was added to terminate reaction. HA from the hydrolysis of the substrate HHL was detected by RP-HPLC on a C18 column (250 × 4.6 mm, 5 μm, Tianhe) at 228 nm. The column was eluted at a flow rate of 1 mL/min using 25% (v/v) acetonitrile in water with 0.05% trifluoroacetic acid. Lisinopril and borate buffer solution were used as positive and negative control, respectively. The formula (1) for computing ACE inhibitory rate is shown as follows. Wherein, Acontrol is the peak area of HA by negative control and Asample is the peak area of HA by the sample. The IC50 was calculated by the dosage and efficiency curve based on the 50% inhibition of ACE. (1) Inhibitory activity (%)=Acontrol−Asample/Acontrol×100%

| Molecule | ACE inhibitory activity (in words) (RP-HPLC) | also measured |
| --- | --- | --- |
| NCCCC[C@H](N[C@@H](CCc1ccccc1)C(=O)O)C(=O)N1CCC[C@H]1C(=O)O [Lisinopril, lisinopril, reference compound] |  | ACE inhibition ratio (lisinopril 2 × 10^−9 mol/L, RP-HPLC, 228 nm, 37 °C, 2 mM HHL, 60 min): 77.86% ± 0.15% |
| NCHEF [oligopeptide from in silico proteolysis of adlay prolamins, chemically synthesized] | could not obtain the desirable activities of ACE |  |
| NPATY [NPATY] |  | IC50 (RP-HPLC on C18 column, 228 nm, 10 μL sample + 20 μL ACE (2 mU), 37 °C 10 min pre-incubation, 20 μL of 2 mM HHL, 60 min, from dosage and efficiency curve): 61.9 ± 2.77 µM |
| VSAIGF [oligopeptide from in silico proteolysis of adlay prolamins, chemically synthesized] | could not obtain the desirable activities of ACE |  |
